Measured values published in patent US20120058997A1, “IMIDAZO[1,2-B]PYRIDAZINE AND PYRAZOLO[1,5-A]PYRIMIDINE DERIVATIVES AND THEIR USE AS PROTEIN KINASE INHIBITORS” (SuperGen, Inc., priority 2006, published 2012).
Like-named read-outs stand apart in the source and are kept apart here.

Target: Pim-1 kinase (Homo sapiens, UniProt P11309)
Assay: Promega Kinase-Glo Pim-1 kinase inhibition assay;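 note: in vitro Pim-1 reaction run 2 h at 30 °C, then leftover ATP measured by luciferase luminescence, where signal falls as kinase activity rises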
Format: biochemical
[1] = Table X, Kinase-Glo, read-out: IC50 on Pim1

Chain of Pim-1 kinase (P11309 whole entry): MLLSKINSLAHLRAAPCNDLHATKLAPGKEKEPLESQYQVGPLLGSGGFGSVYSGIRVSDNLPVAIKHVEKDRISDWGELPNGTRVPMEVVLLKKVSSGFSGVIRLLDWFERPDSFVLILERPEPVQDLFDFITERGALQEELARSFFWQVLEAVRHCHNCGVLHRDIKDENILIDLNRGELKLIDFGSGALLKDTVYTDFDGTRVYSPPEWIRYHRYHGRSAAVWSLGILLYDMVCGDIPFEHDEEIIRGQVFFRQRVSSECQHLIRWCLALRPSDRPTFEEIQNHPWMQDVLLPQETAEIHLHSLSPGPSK

IC50 [1] [nM]	IC50 (Table VIII (results), values in nM, read-out: IC50(Kinase)) [nM]	Compound
100 to 1000	–	FC(F)(F)c1cccc(-c2cnn3ccc(NC4CCOCC4)nc23)c1 [Compound 8-58, N-(Tetrahydro-2H-pyran-4-yl)-3-(3-(trifluoromethyl)phenyl)pyrazolo[1,5-a]pyrimidin-5-amine]
10 to 100	–	FC(F)(F)Oc1cccc(-c2cnc3ccc(NCCN4CCOCC4)nn23)c1 [Compound 8-44, N-(2-morpholinoethyl)-3-(3-(trifluoromethoxy)phenyl)imidazo[1,2-b]pyridazin-6-amine]
100 to 1000	–	CO[C@H]1CC[C@H](Nc2ccn3ncc(-c4cccc(OC(F)(F)F)c4)c3n2)CC1 [Compound 8-49, 4-(trans-Methoxycyclohexyl)-3-(3-(trifluoromethoxy)phenyl)pyrazolo[1,5-a]pyrimidin-5-amine]
100 to 1000	–	O=S1(=O)CCC(CNc2ccc3ncc(-c4cccc(Cl)c4)n3n2)CC1 [Compound 8-40, 4-(((3-(3-Chlorophenyl)imidazo[1,2-b]pyridazin-6-yl)amino)methyl)tetrahydro-2H-thiopyran 1,1-dioxide]
100 to 1000	–	FC(F)(F)Oc1cccc(-c2cnn3ccc(NC4CCOCC4)nc23)c1 [Compound 8-50, N-(Tetrahydro-2H-pyran-4-yl)-3-(3-(trifluoromethoxy)phenyl)pyrazolo[1,5-a]pyrimidin-5-amine]
100 to 1000	–	COc1ccc(CNc2ccc3ncc(-c4cccc(OC(F)(F)F)c4)n3n2)cc1 [Compound 8-43, N-(4-Methoxybenzyl)-3-(3-(trifluoromethoxy)phenyl)imidazo[1,2-b]pyridazin-6-amine]
10 to 100	–	CN1CCC(CNc2ccn3ncc(-c4cccc(OC(F)(F)F)c4)c3n2)CC1 [Compound 8-67]
100 to 1000	–	O=S1(=O)CCC(CNc2ccn3ncc(-c4cccc(Cl)c4)c3n2)CC1 [Compound 8-66]
1000 to 5000	–	O=S1(=O)CCN(c2ccn3ncc(-c4cccc(C(F)(F)F)c4)c3n2)CC1 [Compound 8-60]
10 to 100	–	CC(C)(O)[C@H]1CC[C@H](Nc2ccn3ncc(-c4cccc(Cl)c4)c3n2)CC1 [Compound 8-63]
100 to 1000	–	Clc1cccc(-c2cnn3ccc(NC4CCOCC4)nc23)c1 [Compound 8-65]
1000 to 5000	–	COCCOc1ccc2ncc(-c3cccc(OC(F)(F)F)c3)n2n1 [Compound 8-42, 6-(2-Methoxyethoxy)-3-(3-(trifluoromethoxy)phenyl)imidazo[1,2-b]pyridazine]
100 to 1000	–	CC(C)(O)[C@H]1CC[C@H](Nc2ccn3ncc(-c4cccc(OC(F)(F)F)c4)c3n2)CC1 [Compound 8-47]
10 to 100	–	C[C@]1(O)CC[C@H](Nc2ccn3ncc(-c4cccc(C(F)(F)F)c4)c3n2)CC1 [Compound 8-55, 1-Methyl-4-((3-(3-(trifluoromethyl)phenyl)pyrazolo[1,5-a]pyrimidin-5-yl)amino)-trans-cyclohexanol]
100 to 1000	–	O=S1(=O)CCC(CNc2ccn3ncc(-c4cccc(OC(F)(F)F)c4)c3n2)CC1 [Compound 8-51, 4-(((3-(3-(Trifluoromethoxy)phenyl)pyrazolo[1,5-a]pyrimidin-5-yl)amino)methyl)tetrahydro-2H-thiopyran 1,1-dioxide]
100 to 1000	–	O=S1(=O)CCC(CNc2ccn3ncc(-c4cccc(C(F)(F)F)c4)c3n2)CC1 [Compound 8-59]
10 to 100	–	N[C@H]1CC[C@H](Nc2ccc3ncc(-c4cccc(Cl)c4)n3n2)CC1 [Compound 8-68]
< 10	–	N[C@H]1CC[C@H](Nc2ccn3ncc(-c4cccc(OC(F)(F)F)c4)c3n2)CC1 [Compound 8-52, N-(3-(3-(Trifluoromethoxy)phenyl)pyrazolo[1,5-a]pyrimidin-5-yl)cyclohexane-1,4-trans-diamine]
100 to 1000	–	CC(C)(O)CCOc1ccc2ncc(-c3cccc(OC(F)(F)F)c3)n2n1 [Compound 8-41, 2-Methyl-4-((3-(3-(Trifluoromethoxy)phenyl)imidazo[1,2-b]pyridazin-6-yl)oxy)butan-2-ol]

Continued, molecule first:

Compound	IC50 [1] [nM]	IC50 (Table VIII (results), values in nM, read-out: IC50(Kinase)) [nM]
CO[C@H]1CC[C@H](Nc2ccc3ncc(-c4cccc(C(F)(F)F)c4)n3n2)CC1 [Compound 8-32, 4-(trans-Methoxycyclohexyl)-3-(3-(trifluoromethyl)phenyl)imidazo[1,2-b]pyridazin-6-amine]	100 to 1000	–
O=C(CN1CCOCC1)N1CCC(CNc2ccc3ncc(-c4cccc(OC(F)(F)F)c4)n3n2)CC1 [Compound 8-21, 2-Morpholino-1-(4-(((3-(3-(trifluoromethoxy)phenyl)imidazo[1,2-b]pyridazin-6-yl)amino)methyl)piperidin-1-yl)ethanone]	10 to 100	–
O=S1(=O)CCC(CNc2ccc3ncc(-c4cccc(OC(F)(F)F)c4)n3n2)CC1 [Compound 8-13, 4-(((3-(3-(Trifluoromethoxy)phenyl)imidazo[1,2-b]pyridazin-6-yl)amino)methyl)tetrahydro-2H-thiopyran 1,1-dioxide]	100 to 1000	–
CC(C)(O)C(=O)N1CCC(CNc2ccc3ncc(-c4cccc(OC(F)(F)F)c4)n3n2)CC1 [Compound 8-20, 2-Hydroxy-2-methyl-1-(4-(((3-(3-(trifluoromethoxy)phenyl)imidazo[1,2-b]pyridazin-6-yl)amino)methyl)piperidin-1-yl)propan-1-one]	10 to 100	–
Clc1cccc(-c2cnc3ccc(NC4CCOCC4)nn23)c1 [Compound 8-39]	< 10	–
CC(C)O[C@H]1CC[C@H](Nc2ccc3ncc(-c4cccc(OC(F)(F)F)c4)n3n2)CC1 [Compound 8-16, 4-(trans-Isopropoxycyclohexyl)-3-(3-(trifluoromethoxy)phenyl)imidazo[1,2-b]pyridazin-6-amine]	100 to 1000	–
CC(C)(O)CCNc1ccc2ncc(-c3cccc(OC(F)(F)F)c3)n2n1 [Compound 8-3, 2-Methyl-4-((3-(3-(trifluoromethoxy)phenyl)imidazo[1,2-b]pyridazin-6-yl)amino)butan-2-ol]	10 to 100	–
O=C1CC(CNc2ccc3ncc(-c4cccc(OC(F)(F)F)c4)n3n2)CCN1 (stereo not shown) [Compound 8-23, 4-(((3-(3-(Trifluoromethoxy)phenyl)imidazo[1,2-b]pyridazin-6-yl)amino)methyl)piperidin-2-one]	1000 to 5000	–
O[C@@H]1CC[C@@H](Nc2ccc3ncc(-c4cccc(OC(F)(F)F)c4)n3n2)C1 [Compound 8-5, (1R,3R)3-((3-(3-(Trifluoromethoxy)phenyl)imidazo[1,2-b]pyridazin-6-yl)amino)cyclopentanol]	10 to 100	–
CC(C)N1CCC(CNc2ccc3ncc(-c4cc(OC(F)(F)F)ccc4O)n3n2)CC1 [Compound 7-49, N-((1-isopropylpiperidin-4-yl)methyl)-3-(2-hydroxy-5-(trifluoromethoxy)phenyl)-imidazo[1,2-b]pyridazin-6-amine]	–	310
O=S1(=O)CCC(CNc2ccc3ncc(-c4cccc(C(F)(F)F)c4)n3n2)CC1 [Compound 8-34, 4-(((3-(3-(Trifluoromethyl)phenyl)imidazo[1,2-b]pyridazin-6-yl)amino)methyl)tetrahydro-2H-thiopyran 1,1-dioxide]	100 to 1000	–
C[C@]1(O)CC[C@H](Nc2ccc3ncc(-c4cccc(OC(F)(F)F)c4)n3n2)CC1 [Compound 8-9, 1-Methyl-4-((3-(3-(trifluoromethoxy)phenyl)imidazo[1,2-b]pyridazin-6-yl)amino)-trans-cyclohexanol]	10 to 100	–
FC(F)(F)c1cccc(-c2cnc3ccc(NC4CCOCC4)nn23)c1 [Compound 8-33, N-(Tetrahydro-2H-pyran-4-yl)-3-(3-(trifluoromethyl)phenyl)imidazo[1,2-b]pyridazin-6-amine]	10 to 100	–
FC(F)(F)Oc1cccc(-c2cnc3ccc(NCC4CCOCC4)nn23)c1 [Compound 8-19, N-((tetrahydro-2H-pyran-4-yl)methyl)-3-(3-(trifluoromethoxy)phenyl)imidazo[1,2-b]pyridazin-6-amine]	10 to 100	–
FC1(F)CCC(CNc2ccc3ncc(-c4cccc(OC(F)(F)F)c4)n3n2)CC1 [Compound 8-17, N-((4,4-difluorocyclohexyl)methyl)-3-(3-(trifluoromethoxy)phenyl)imidazo[1,2-b]pyridazin-6-amine]	1000 to 5000	–
N[C@H]1CCCN(c2ccc3ncc(-c4cccc(OC(F)(F)F)c4)n3n2)C1 [Compound 8-25, (S)-1-(3-(3-(Trifluoromethoxy)phenyl)imidazo[1,2-b]pyridazin-6-yl)piperidin-3-amine]	10 to 100	–
CC(C)(O)[C@H]1CC[C@H](Nc2ccc3ncc(-c4cccc(Cl)c4)n3n2)CC1 [Compound 8-37]	< 10	–
C[C@]1(O)CC[C@H](Nc2ccc3ncc(-c4cccc(C(F)(F)F)c4)n3n2)CC1 [Compound 8-30, 1-Methyl-4-((3-(3-(trifluoromethyl)phenyl)imidazo[1,2-b]pyridazin-6-yl)amino)-trans-cyclohexanol]	10 to 100	–
NCC1CCN(c2ccc3ncc(-c4cccc(OC(F)(F)F)c4)n3n2)C(=O)C1 (stereo not shown) [Compound 8-24, 4-(Aminomethyl)-1-(3-(3-(trifluoromethoxy)phenyl)imidazo[1,2-b]pyridazin-6-yl)piperidin-2-one]	10 to 100	–
C[C@]1(O)CC[C@H](Nc2ccc3ncc(-c4cccc(Cl)c4)n3n2)CC1 [Compound 8-36, 4-((3-(3-Chlorophenyl)imidazo[1,2-b]pyridazin-6-yl)amino)-1-methyl-trans-cyclohexanol]	100 to 1000	–
CO[C@H]1CC[C@H](Nc2ccc3ncc(-c4cccc(Cl)c4)n3n2)CC1 [Compound 8-38, 3-(3-Chlorophenyl)-N-(4-trans-methoxycyclohexyl)imidazo[1,2-b]pyridazin-6-amine]	10 to 100	–
O[C@H]1CC[C@H](Oc2ccc3ncc(-c4cccc(OC(F)(F)F)c4)n3n2)CC1 [Compound 8-4, 4-((3-(3-(Trifluoromethoxy)phenyl)imidazo[1,2-b]pyridazin-6-yl)oxy)-trans-cyclohexanol]	< 10	–
O[C@H]1C[C@H](CNc2ccc3ncc(-c4cccc(OC(F)(F)F)c4)n3n2)C1 [Compound 8-7, 3-(((3-(3-(Trifluoromethoxy)phenyl)imidazo[1,2-b]pyridazin-6-yl)amino)methyl)-trans-cyclobutanol]	10 to 100	–
OCCN1CCC(CNc2ccc3ncc(-c4cccc(OC(F)(F)F)c4)n3n2)CC1 [Compound 8-27, 2-(4-(((3-(3-(Trifluoromethoxy)phenyl)imidazo[1,2-b]pyridazin-6-yl)amino)methyl)piperidin-1-yl)ethanol]	10 to 100	–
